US12234258B2, “Timosaponin compounds” (priority 2012, dated 2025)
Read-outs that look alike come from different tables or passages of the source.

Key:
[1] = tested on: SW480, human colon adenocarcinoma cells; assay: Growth of cancer cell lines: SW480; format: cell-based; details: mean ± S.D., n = 3; read-out: IC50 against growth of SW480
[2] = tested on: Aβ42, Aβ40 and Aβ38 in N2A-APPswe cells; assay: Aβ42, Aβ40 and Aβ38 profiles in conditioned medium by ELISA; format: cell-based; details: FIG. 18, 18 hr
Protocol: Aβ ELISA: Aβ concentrations in conditioned medium were assayed using ELISA kits for human Aβ40, human Aβ42 (ultrasensitive) (Invitrogen) and Aβ38 (MyBioSource).
Cells were treated with various concentrations of (TAIII/TAI/AA/TAV) and DMSO vehicle (C) for 18 hr. In part A of FIG. 18, the expression of full length (FL) and CTF (c99 and c83) in cell lysates and secreted APP (sAPPα and sAPPP) in the conditioned medium were examined by immunoblot using methods specified in Example 6. In part B of FIG. 18, the profiles of Aβ42, Aβ40 and Aβ38 in the conditioned medium were determined by ELISA using methods specified in Example 5.

[3] = tested on: HeLa, human cervical carcinoma cells; assay: Growth of cancer cell lines: HeLa; format: cell-based; details: mean ± S.D., n = 3; read-out: IC50 against growth of HeLa
[4] = tested on: HepG2, human hepatoma cells; assay: Growth of cancer cell lines: HepG2; format: cell-based; details: mean ± S.D., n = 3; read-out: IC50 against growth of HepG2
[5] = tested on: Aβ1-42 production in SweAPP N2A cells (N2A-APPswe); assay: Aβ1-42 ELISA of conditioned medium of SweAPP N2A cells; format: cell-based
Protocol: Neuro-2A cells expressing Swedish mutants of (“SweAPP N2A cells”) was cultured in minimal essential medium with glutamine (2 mM), pyruvate (2 mM) and fetal bovine serum (10%). Cells were seeded at 6-well plate at 1×10^6 cells/mL and grown overnight. The medium was replaced.
Conditioned medium was diluted with 2 part volume of ELISA diluents. Aβ1-42 concentrations were determined by using human Aβ1-42 ultrasensitive ELISA kit (manufactured by Invitrogen).

[6] = tested on: NCI-H460, human non-small lung carcinoma cells; assay: Growth of cancer cell lines: NCI-H460; format: cell-based; details: mean ± S.D., n = 3; read-out: IC50 against growth of NCI-H460
Neuro-2A cells = assay: Neurite outgrowth of N2A cells; format: cell-based
Protocol: Immunofluorescence examination of neurite outgrowth: Neuro-2A cells were seeded at 1×10^5 cells per glass bottom dish. After treatment, cells were fixed with 4% paraformaldyde for 10 min, permeabilized with 0.1% Trition X-100, and then blocked with 1% BSA in PBS. The cells were incubated with monoclonal antibody raised against type III β-tubulin (Sigma) for 1 hr followed by Alexa488 conjugated secondary antibody. Neurite morphology was examined under fluorescence microscope.

[7] = tested on: Notch cleavage by γ-secretase in N2A-APPswe cells; assay: Notch cleavage by γ-secretase (NotchΔE/NICD immunoblot); format: cell-based; details: FIG. 20; at concentrations that effectively lower Aβ levels, 18 hr
Protocol: (§1) Immunoblot analysis: Cells were washed with phosphate buffered saline and lysed with buffer containing 50 mM Tris-Cl, pH 7.4, 150 mM NaCl, 1% Triton X-100 supplemented with protease inhibitors. Equal amount of proteins (30 μg) was resolved by 16.5% Tris-tricine gels and then transferred to nitrocellulose membrane with 0.2 µm pore size. For detection of secreted Aβ, sAPPα and sAPPβ, cells were treated with the timosaponins for 8 hr in complete medium which were then replaced with medium containing 0.1% FBS. After further incubation of 16 hr, 50 μL of the conditioned medium was mixed with SDS sample buffer and resolved accordingly. The membrane was blocked with Tris-buffered saline containing 0.1% TWEEN® 20 and 3% BSA and then incubated with primary antibodies at 4° C. overnight, followed with appropriate secondary antibodies for 2 hr. The primary antibodies were: APP c-terminal rabbit antibody (1:5000; Merck Bioscience) for detection of full length APP and APP-CTFs, mouse monoclonal 6E10 (Covance) for secreted Aβ and sAPPα, mouse monoclonal 6A1 (IBL) for sAPPβswe, ADAM-10 rabbit antibody (Millipore) and BACE1 rabbit antibody (Millipore). The immunoreactivities were detected using enhanced chemiluminescence reagents (GE Health care). […]

[8] = tested on: SH-SY5Y neuronal cells transfected with mRFP-LC3; assay: Colocalization of exogenous labeled Aβ1-42 with mRFP-LC3 autophagic compartments; format: cell-based, Human; details: 5 μM, 16 hours
SweAPP N2A cells = assay: Cell viability of SweAPP N2A cells; format: cell-based; details: at concentrations that significantly inhibited Aβ production
Protocol: Cells were treated with timosaponins or other test compounds, and the conditioned medium was collected and subjected to measurement of secreted Aβ and N-terminal secreted APP (sAPPα and sAPPβ) by ELISA using specific antibodies pair targeting to respective fragments. Lysates from cells treated with timosaponins were subjected to immunoblot analysis using antibodies against c-terminal of APP to detect the full length APP, α-CTF and β-CTF. Cell viability and cytotoxicity are examined by MTT and LDH release assays, respectively. Cell culture: Neuro-2A cells expressing Swedish mutants of APP (N2A-APPswe) ENREF 12 was cultured in minimal essential medium with 2 mM glutamine, 2 mM pyruvate and 10% fetal bovine serum. Cells were seeded at 6-well plate at 1×10^6 cells/mL and grown for two days until confluence. The medium was replaced and the test compounds were added at indicated concentrations for 24 hr. Cell viability was measured by standard MTT assays.

purified BACE1 enzyme = target: T1, purified BACE1 enzyme (Homo sapiens, UniProt P56817); assay: Purified BACE1 enzyme activity; format: biochemical; details: up to 100 μM
T1 construct: purchased Millipore
Protocol: (§2) β-Secretase assays: Confluent N2A-APPswe cells were harvested and homogenized with 50 mM MES, pH 5.5. Protein extracts (10 μg) were incubated with TAIII for 1 hr at room temperature. The β-secretase activities were assayed by adding 10 μM fluorogenic β-secretase substrate (Millipore) to the reaction mixtures and fluorescence signals (excitation, 380 nm; emission, 460 nm) were measured. β-Secretase assays were also performed using purified BACE1 (Millipore) at 100 ng in a buffer of 50 mM MES, pH 5.5.

[9] = tested on: APP processing (FL APP, β-CTF, secreted Aβ) in SweAPP N2A cells; assay: Immunoblot analysis of APP processing in SweAPP N2A cells; format: cell-based; details: treated SweAPP N2A cells
Protocol: Cells obtained from Example 5 were washed with phosphate buffered saline and lysed with buffer containing Tris-Cl (50 mM, pH 7.4), NaCl ([…]), TRITON™ X-100 (1%) supplemented with protease inhibitors. Equal amount of proteins (30 μg) was resolved by 16.5% Tris-tricine gels and then transferred to nitrocellulose membrane with 0.2 µm pore size. For detection of secreted Aβ, 50 μL of the conditioned medium was mixed with sodium dodecyl sulfate (“SDS”) sample buffer and resolved accordingly. The membrane was blocked with Tris-buffered saline containing TWEEN™20 (0.1%) and bovine serum albumin (“BSA”) (3%) and then incubated with primary antibodies at 4° C. overnight, followed with appropriate secondary antibodies for 2 hours. The primary antibodies used included rabbit APP c-terminal antibody with 1:5000 dilution (obtained from Merck Bioscience) for detection of full length (“FL”) and CTFs, and mouse monoclonal 6E10 (obtained from Covance) for detection of secreted Aβ. The immunoreactivities were detected using enhanced chemiluminescence reagents (manufactured by GE Health care).
as §1, with “The primary antibodies were: APP c-terminal rabbit antibody (1:5000; Merck Bioscience) for detection of full length APP and APP-CTFs, mouse monoclonal 6E10 (Covance) for secreted Aβ and sAPPα, mouse monoclonal 6A1 (IBL) for sAPPβswe, ADAM-10 rabbit antibody (Millipore) and BACE1 rabbit antibody (Millipore).” left out

[10] = target: T2, BACE activity in cell lysates (Mus musculus, UniProt P56818); assay: BACE (β-secretase) activity in cell lysates; format: biochemical; details: cells treated with compound
T2 construct: endogenous in cells; host or cells: N2A-APPswe (Neuro-2A cells expressing Swedish mutant APP)
Protocol: as §2

[11] = Table 4, N2A-APPswe cells, mean ± S.D, n ≥ 3, read-out: IC50 in lowering Aβ42 production
[12] = FIG. 19, TAIII 5 μM, TAI 10 μM, SSG 25 μM, 18 hr, type III β-tubulin staining
[13] = Example 7, SweAPP N2A cells, Aβ1-42 ELISA, read-out: IC50, inhibition of Aβ production
[14] = Example 9, SweAPP N2A cells, Aβ1-42 ELISA, read-out: ICS50, inhibitor of Aβ production

T2 sequence (P56818 46-501): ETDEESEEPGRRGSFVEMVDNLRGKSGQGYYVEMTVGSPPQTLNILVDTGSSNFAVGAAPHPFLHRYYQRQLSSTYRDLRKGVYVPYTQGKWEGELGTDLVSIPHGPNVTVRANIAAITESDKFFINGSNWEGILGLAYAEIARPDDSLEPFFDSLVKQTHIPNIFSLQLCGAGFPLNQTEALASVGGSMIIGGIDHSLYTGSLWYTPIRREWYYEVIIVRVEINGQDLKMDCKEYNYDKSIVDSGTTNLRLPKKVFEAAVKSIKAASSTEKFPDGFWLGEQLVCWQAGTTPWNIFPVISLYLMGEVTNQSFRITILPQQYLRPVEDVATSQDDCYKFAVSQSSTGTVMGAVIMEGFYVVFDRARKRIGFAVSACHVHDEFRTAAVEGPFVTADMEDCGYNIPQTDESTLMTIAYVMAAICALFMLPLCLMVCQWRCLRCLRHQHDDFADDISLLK
T1 sequence (P56817 46-501, species assumed): as the sequence (P56818 46-501) above, with S6P, I162V, I165L, T180S, A182V, V340I, A393L, H443Q counted along it

| SMILES | IC50 [1] [µM] | Aβ profile (Aβ42 vs Aβ40 and Aβ38) [2] | IC50 [3] [µM] | IC50 [4] [µM] | IC50 [5, 11] [µM] | IC50 [6] [µM] | Neurite outgrowth (Neuro-2A cells; [12]) | Notch processing (NotchΔE and NICD) [7] | IC50 ([5]; N2a-APPswe, read-out: IC50 in lowering Aβ42 production) [µM] | IC50 [5, 13] [µM] | Colocalization of fluorophore labeled Aβ1-42 with mRFP-LC3 associated autophagic compartments [8] | Cell viability (SweAPP N2A cells) | IC50 ([5]; Example 5, SweAPP N2A cells, 18 hours, ELISA, read-out: IC50, reduction of Aβ1-42 peptide secretion) [µM] | IC50 [5, 14] [µM] | Activity of purified BACE1 enzyme (purified BACE1 enzyme) | Aβ immunoreactivities in the conditioned medium [9] | FL APP expression [9] | Intracellular APP β-CTF expression [9] | BACE activity in cell lysates [10] | Neurite outgrowth (Neuro-2A cells; Example 8, 5 μM, 18 hours, N2A cells) |
| --- | --- | --- | --- | --- | --- | --- | --- | --- | --- | --- | --- | --- | --- | --- | --- | --- | --- | --- | --- | --- |
| C[C@H]1CC[C@@]2(OC1)O[C@H]1C[C@H]3[C@@H]4CC[C@@H]5C[C@@H](O[C@@H]6O[C@H](CO)[C@@H](O)[C@H](O)[C@H]6O)CC[C@]5(C)[C@H]4CC[C@]3(C)[C@H]1[C@@H]2C [Asparagoside A] | 15.6 ± 1.96 | preferentially lower Aβ42 production | 65.4 ± 20.9 | 7.72 ± 2.68 | 6 ± 1.4 | 14.1 ± 0.64 | significant extension and branching of neurites | – | – | – | – | – | – | – | – | – | – | – | – | – |
| C[C@H]1CC[C@@]2(OC1)O[C@H]1C[C@H]3[C@@H]4CC[C@@H]5C[C@@H](OCC(=O)O)CC[C@]5(C)[C@H]4CC[C@]3(C)[C@H]1[C@@H]2C [Ethereal SSG] | – | – | – | – | – | – | – | did not affect the Notch processing | 27 ± 8 | – | – | – | – | – | – | – | – | – | – | – |
| C[C@H]1CC[C@@]2(OC1)O[C@H]1C[C@H]3[C@@H]4CC[C@@H]5C[C@@H](O)CC[C@]5(C)[C@H]4CC[C@]3(C)[C@H]1[C@@H]2C [Sarsasapogenin] | 29.4 ± 5.09 | – | 50 ± 2 | 32.6 ± 4.58 | 53 ± 9 | 19.2 ± 0.45 | significant extension and branching of neurites | did not affect the Notch processing | – | ~20 | – | – | – | – | – | – | – | – | – | – |
| C[C@H]1CC[C@@]2(OC1)O[C@H]1C[C@H]3[C@@H]4CC[C@@H]5C[C@@H](O[C@@H]6O[C@H](CO)[C@H](O)[C@H](O)[C@H]6O[C@@H]6O[C@H](CO)[C@@H](O)[C@H](O)[C@H]6O)CC[C@]5(C)[C@H]4CC[C@]3(C)[C@H]1[C@@H]2C [Timosaponin AIII] | 12.2 ± 0.28 | preferentially lower Aβ42 production | 7.47 ± 2.39 | 7.28 ± 0.56 | 2.3 ± 0.2 | 6.9 ± 0.31 | significant extension and branching of neurites | – | – | – | significantly colocalized | did not affect the cell viability | 2 | 2.5 | not affected | concomitant decrease | without significant changes | significantly decreased | no change | significant extension and branching neuritis |
| C[C@H]1CC[C@@]2(OC1)O[C@H]1C[C@H]3[C@@H]4CC[C@@H]5C[C@@H](O[C@@H]6O[C@H](CO)[C@H](O)[C@H](O)[C@H]6O)CC[C@]5(C)[C@H]4CC[C@]3(C)[C@H]1[C@@H]2C [Timosaponin AI] | 12.1 ± 3.83 | preferentially lower Aβ42 production | 44.5 ± 1.15 | 10.5 ± 4.64 | 6.1 ± 2.8 | 10.2 ± 4.64 | significant extension and branching of neurites | – | – | ~20 | – | – | – | 5 | – | – | – | – | – | – |
| C[C@H]1CC[C@@]2(OC1)O[C@H]1C[C@H]3[C@@H]4CC[C@@H]5C[C@@H](O[C@@H]6O[C@H](CO)[C@H](O[C@@H]7O[C@H](CO)[C@@H](O)[C@H](O)[C@H]7O)[C@H](O)[C@H]6O[C@@H]6O[C@H](CO)[C@@H](O)[C@H](O)[C@H]6O)CC[C@]5(C)[C@H]4CC[C@]3(C)[C@H]1[C@@H]2C [Timosaponin AV] | 21.7 ± 2.27 | preferentially lower Aβ42 production | 21.6 ± 5.2 | 17.4 ± 4.29 | 4.2 ± 1.2 | 20 ± 0.71 | – | – | – | – | – | – | – | – | – | – | – | – | – | – |
